Results taken from patent US20260125375A1 (Pfizer Inc., priority 2022, published 2026).

Target: T1, C-CBL (46-435) (Homo sapiens, UniProt P22681)
T1 construct: N-terminal biotinylated WT CBL-B (36-427) and C-CBL (46-435) were captured on a streptavidin (SA) coated sensor chip
T1 sequence (P22681 46-435): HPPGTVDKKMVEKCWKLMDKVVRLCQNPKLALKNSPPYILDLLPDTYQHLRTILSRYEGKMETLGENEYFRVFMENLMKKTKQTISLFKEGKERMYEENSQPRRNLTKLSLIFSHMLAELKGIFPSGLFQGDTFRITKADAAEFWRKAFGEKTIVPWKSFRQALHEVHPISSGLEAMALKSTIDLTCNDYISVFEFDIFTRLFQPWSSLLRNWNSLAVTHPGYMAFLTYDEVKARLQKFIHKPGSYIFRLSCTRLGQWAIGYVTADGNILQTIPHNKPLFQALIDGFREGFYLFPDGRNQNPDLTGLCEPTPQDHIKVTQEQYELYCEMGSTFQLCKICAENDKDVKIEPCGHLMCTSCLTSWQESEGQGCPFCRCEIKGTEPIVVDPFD
Experiment: Surface Plasmon Resonance (SPR) assay, binding affinity and kinetics, C-CBL
Details: SPR at 10° C., biotinylated C-CBL (46-435) on streptavidin chip; geometric mean; read-out: C-CBL SPR Kd (nM) GMean
How it was run: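 SPR kinetics at 10° C, run either single-cycle (0.001–1 μM, 3-fold, 6 points, 120 s on, >5400 s off) or multi-cycle (10 points, 2-fold, top 10 or 100 μM, 90 s on). Proteins were N-biotinylated CBL-B (36-427) and C-CBL (46-435) on SA surfaces, in pH 7.2 HEPES, 2% DMSO.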

With CC(c1nc(C(F)(F)F)cc2c(-c3cccc(C4(Cc5nncn5C)COC4)c3)n[nH]c12)N1CCCCC1 (single isomer, unassigned) [Example C22, 3-(3-{3-[(4-methyl-4H-1,2,4-triazol-3-yl)methyl]oxetan-3-yl}phenyl)-7-[(1ξ)-1-(piperidin-1-yl)ethyl]-5-(trifluoromethyl)-1H-pyrazolo[3,4-c]pyridine] the Kd was 116 nM.
Work on C[C@H](c1nc(C(F)(F)F)cc2c(-c3cccc(C4(Cc5nncn5C)COC4)c3)n[nH]c12)N1C[C@@H](F)[C@H](F)C1 (single isomer, unassigned) [Example C26] yielded a Kd of 183 nM.
Compound C[C@@H](c1nc(C(F)(F)F)cc2c(-c3cccc(C4(Cc5nncn5C)COC4)c3)n[nH]c12)N1CCC(F)(F)C1 (single isomer, unassigned) [Example D5] has a Kd of 209 nM.
For Cn1cnnc1[C@@H](c1cccc(-c2n[nH]c3c(CNC4CCCC4)nc(C(F)(F)F)cc23)c1)C1CCC1 [Example D4], the Kd was 106 nM.
In the case of CC(c1nc(C(F)(F)F)cc2c(-c3cccc(C4(Cc5nncn5C)COC4)c3)n[nH]c12)N1CCC[C@H](C)C1 (single isomer, unassigned) [Example C19], the Kd is reported as 51.3 nM.
C[C@@H](NC1CCCC1)c1nc(C(F)(F)F)cc2c(-c3cccc([C@H](c4nncn4C)C4CCC4)c3)n[nH]c12 (single isomer, unassigned) [Example C11] gave a Kd of 6.1 nM.
C[C@@H](NC1CCCC1)c1nc(C(F)(F)F)cc2c(-c3cccc(C4(Cc5nncn5C)COC4)c3)n[nH]c12 (single isomer, unassigned) [Example C15] was tested, and the Kd was 33.9 nM.
C[C@H](N[C@@H]1CCOC1)c1nc(C(F)(F)F)cc2c(-c3cccc([C@H](c4nncn4C)C4CCC4)c3)n[nH]c12 (single isomer, unassigned) [Example D2] gave a Kd of 108 nM.
Work on C[C@@H](NC1CCC1)c1nc(C(F)(F)F)cc2c(-c3cccc(C4(Cc5nncn5C)COC4)c3)n[nH]c12 [Example C16] yielded a Kd of 83.4 nM.
C[C@@H](N[C@@H]1CCC(F)(F)C1)c1nc(C(F)(F)F)cc2c(-c3cccc(C4(Cc5nncn5C)COC4)c3)n[nH]c12 (single isomer, unassigned) [Example C18] showed a Kd of 6.2 nM.
With C[C@@H]1CCCN(Cc2nc(C(F)(F)F)cc3c(-c4cccc(C5(Cc6nncn6C)COC5)c4)n[nH]c23)C1 [Example C29, 7-{[(3R)-3-methylpiperidin-1-yl]methyl}-3-(3-{3-[(4-methyl-4H-1,2,4-triazol-3-yl)methyl]oxetan-3-yl}phenyl)-5-(trifluoromethyl)-1H-pyrazolo[3,4-c]pyridine] the Kd was 195 nM.
For C[C@H](N[C@H]1C[C@@H](F)C1)c1nc(C(F)(F)F)cc2c(-c3cccc([C@H](c4nncn4C)C4CCC4)c3)n[nH]c12 (single isomer, unassigned) [Example C95], the Kd was 72.5 nM.
In the case of C[C@@H](N[C@H]1CCC(F)(F)C1)c1nc(C(F)(F)F)cc2c(-c3cccc(C4(Cc5nncn5C)COC4)c3)n[nH]c12 (single isomer, unassigned) [Example C13], the Kd is reported as 11.9 nM.
For C[C@@H](N[C@H]1CCOC1)c1nc(C(F)(F)F)cc2c(-c3cccc([C@H](c4nncn4C)C4CCC4)c3)n[nH]c12 (single isomer, unassigned) [Example C3], the Kd was 80.7 nM.
In the case of Cn1cnnc1[C@@H](c1cccc(-c2n[nH]c3c(CN[C@H]4CCC[C@@H]4O)nc(C(F)(F)F)cc23)c1)C1CCC1 [Example C4, (1S,2S)-2-({[3-{3-[(R)-cyclobutyl(4-methyl-4H-1,2,4-triazol-3-yl)methyl]phenyl}-5-(trifluoromethyl)-1H-pyrazolo[3,4-c]pyridin-7-yl]methyl}amino)cyclopentan-1-ol], the Kd is reported as 49.9 nM.
Compound CC(c1nc(C(F)(F)F)cc2c(-c3cccc(C4(Cc5nncn5C)COC4)c3)n[nH]c12)N1CCOCC1 (single isomer, unassigned) [Example C23, 3-(3-{3-[(4-methyl-4H-1,2,4-triazol-3-yl)methyl]oxetan-3-yl}phenyl)-7-[(1ξ)-1-(morpholin-4-yl)ethyl]-5-(trifluoromethyl)-1H-pyrazolo[3,4-c]pyridine] has a Kd of 29.4 nM.
With CC(c1nc(C(F)(F)F)cc2c(-c3cccc(C4(Cc5nncn5C)COC4)c3)n[nH]c12)N1C[C@@H](F)[C@H](F)C1 (single isomer, unassigned) [Example C25] the Kd was 31.8 nM.
With Cn1cnnc1[C@@H](c1cccc(-c2n[nH]c3cnc(C(F)(F)F)cc23)c1)C1CCC1 [Example A1, 3-{3-[(R)-cyclobutyl(4-methyl-4H-1,2,4-triazol-3-yl)methyl]phenyl}-5-(trifluoromethyl)-1H-pyrazolo[3,4-c]pyridine] the Kd was 931 nM.
C[C@@H](N[C@H]1C[C@@H](F)C1)c1nc(C(F)(F)F)cc2c(-c3cccc([C@H](c4nncn4C)C4CCC4)c3)n[nH]c12 (single isomer, unassigned) [Example C96] showed a Kd of 91.2 nM.
CC(c1nc(C(F)(F)F)cc2c(-c3cccc(C4(Cc5nncn5C)COC4)c3)n[nH]c12)N1CCC[C@H](C)C1 (single isomer, unassigned) [Example C20] gave a Kd of 11.3 nM.
C[C@H](N[C@H]1C[C@@H](O)C1)c1nc(C(F)(F)F)cc2c(-c3cccc([C@H](c4nncn4C)C4CCC4)c3)n[nH]c12 (single isomer, unassigned) [Example C36] was tested, and the Kd was 17.9 nM.
Compound C[C@H](N[C@H]1CCC[C@@H]1O)c1nc(C(F)(F)F)cc2c(-c3cccc([C@H](c4nncn4C)C4CCC4)c3)n[nH]c12 (single isomer, unassigned) [Example C47] has a Kd of 7.2 nM.
Compound CC1CN(Cc2nc(C(F)(F)F)cc3c(-c4cccc(C5(Cc6nncn6C)COC5)c4)n[nH]c23)CCC1(F)F (single isomer, unassigned) [Example C31, 7-{[(3ξ)-4,4-difluoro-3-methylpiperidin-1-yl]methyl}-3-(3-{3-[(4-methyl-4H-1,2,4-triazol-3-yl)methyl]oxetan-3-yl}phenyl)-5-(trifluoromethyl)-1H-pyrazolo[3,4-c]pyridine] has a Kd of 133 nM.
Work on C[C@H](N[C@@H]1CCC(F)(F)C1)c1nc(C(F)(F)F)cc2c(-c3cccc(C4(Cc5nncn5C)COC4)c3)n[nH]c12 (single isomer, unassigned) [Example C17] yielded a Kd of 28.3 nM.
Compound Cn1cnnc1CC1(c2cccc(-c3n[nH]c4c(CN5CCCCC5)nc(C(F)(F)F)cc34)c2)COC1 [Example C33, 3-(3-{3-[(4-methyl-4H-1,2,4-triazol-3-yl)methyl]oxetan-3-yl}phenyl)-7-[(piperidin-1-yl)methyl]-5-(trifluoromethyl)-1H-pyrazolo[3,4-c]pyridine] has a Kd of 107 nM.
For Cn1cnnc1[C@@H](c1cccc(-c2n[nH]c3c(CN[C@@H]4CCC[C@@H]4O)nc(C(F)(F)F)cc23)c1)C1CCC1 [Example C1, (1S,2R)-2-({[3-{3-[(R)-cyclobutyl(4-methyl-4H-1,2,4-triazol-3-yl)methyl]phenyl}-5-(trifluoromethyl)-1H-pyrazolo[3,4-c]pyridin-7-yl]methyl}amino)cyclopentan-1-ol], the Kd was 7.6 nM.
In the case of C[C@@H](N[C@@H]1CCOC1)c1nc(C(F)(F)F)cc2c(-c3cccc([C@H](c4nncn4C)C4CCC4)c3)n[nH]c12 (single isomer, unassigned) [Example D3], the Kd is reported as 124 nM.
Compound CC(NC1CNC1)c1nc(C(F)(F)F)cc2c(-c3cccc(C4(Cc5nncn5C)COC4)c3)n[nH]c12 (single isomer, unassigned) [Example C27, N-{(1ξ)-1-[3-(3-{3-[(4-methyl-4H-1,2,4-triazol-3-yl)methyl]oxetan-3-yl}phenyl)-5-(trifluoromethyl)-1H-pyrazolo[3,4-c]pyridin-7-yl]ethyl}azetidin-3-amine] has a Kd of 71 nM.
